Patent US20210196779A1, “Compositions and Methods for Treating Steroid Hormone-Related Diseases or Disorders” (YALE UNIVERSITY, priority 2018, published 2021)
Read-outs that look alike come from different tables or passages of the source.

Assays:
Assay type in all cases: cell-based
PC3 cells = assay: Cell growth assay, PC3 cells; details: for IC50: Homo sapiens, PC-3, 96 h, 4 days, standardized to equivalent concentration of Y1830, read-out: IC50 for the inhibition of growth
Description: (§1) 20,000 cells in 1 ml of medium (phenol red free RPMI1640, 5% charcoal-dialysis FBS, 50 μg/ml Kanamyacin) were seeded per well of a 24-well plate and incubated in a 37° C. incubator with 5% CO2 overnight. Different concentrations of herbal extract were added to each well in order to have final concentrations from 50 μg/ml to 500 μg/ml. […] For glucocorticoid receptor overexpressed LNCaP cells, dexamethasone (50 nM) was used to stimulate glucocorticoid receptor activity. For all breast cancer cells, E2 (10 nM) was used to stimulate ER activity. Control medium without any steroid hormone was used as a control setting. After 4 days of incubation, cells were fixed and stained for 2 h with 0.5% methylene blue in 50% ethanol, followed by washing with tap water to remove unbound dye. Plates were air dried and then cells were dissolved in 1% sarkosyl (sodium lauroyl sarcosinate) by shaking at room temperature for 3 h. […] All experiments were performed in triplicate wells and were repeated at least three times.

22Rv1 cells = assay: Cell growth assay, 22Rv1 prostate cancer cells; details: Homo sapiens, 22Rv1, 96 h, 4 days, standardized to equivalent concentration of Y1830, read-out: IC50 for the inhibition of growth
Description: (§2) 22RV1 or LNCaP prostate cancer cells were grown in corning T75 cell culture flasks in RPMI1640 medium supplemented with 5% FBS, 50 μg/ml Kanamycin in a 37° C., 5% CO2 incubator.
as §1

AR [1] = assay: Western blot, 22RV1 cells, AR; details: presence or absence of DHT, 24 h
Description: (§3) Western blot analysis was used to determine the protein expression using protein specific antibodies.
(§4) Total cell lysis was conducted using 2×SDS sample buffer (62.5 mM Tris-HCl, 2% SDS, 10% glycerol, 50 mM DTT, and 0.05% bromophenol blue). The samples were sonicated for 10 s to shear DNA. Cell nuclei were isolated using Tris buffer saline with 0.4% NP40. Cell extracts were then electrophoresed through 10% SDS-polyacrylamide gels and transferred to 0.2 μm nitrocellulose membranes (Bio-Rad Laboratories, Hercules, Calif.) with a Miniprotein II transferring apparatus (Bio-Rad). The membranes were blocked and probed in TBS-T buffer (1×TBS buffer, 0.2% Tween 20) containing 5% non-fat milk. Monoclonal rabbit anti-AR (1:5000), was used to detect androgen receptor (Abcam #133273), Glucocorticoid Receptor (D8H2) XP® Rabbit mAb #3660, ERa Antibody (F-10): sc-8002, BRD4 (E2A7X) Rabbit mAb #13440, Brd2 (D89B4) Rabbit mAb #5848, PARP (46D11) Rabbit mAb #9532, Acetyl-Histone H3 (Lys27) (D5E4) XP® Rabbit mAb #8173 and a monoclonal actin antibody diluted 1:2500 (Sigma, St. Louis, Mo.) was used to detect β-actin as the internal control to confirm equal protein loading. […] Enhanced chemiluminescence reagents (Perkin-Elmer Life Science Products, Boston, Mass.) were used to visualize the immunoreactive bands and the densities of protein bands were scanned analyzed using ImageJ software from the NIH.

androgen receptor (AR) = assay: PSA-luciferase reporter assay, DHT induced, 22RV1 cells; details: equivalent doses, 22RV1 cells in the presence of DHT
Description: 22RV1 or LNCaP prostate cancer cells were used in the screening study. 22RV1 or LNCaP cell lines were stably transfected with PSA promoter-PGL4.2 luciferase reporter. DHT (25 nM) was used to stimulate androgen receptor activity for 24 h.
Reporter cells were treated with herbal extracts at 30, 100, 300, and 1000 μg/ml for 24 h in a 37° C.-CO2 incubator. DHT (25 nM) was used to stimulate androgen receptor activity. Dexamethasone (50 nM) was used to stimulate glucocorticoid receptor activity Cells were lysed using luciferase lysis buffer after which luciferase buffer with luciferin was added to generate luminescence. Luminescence was recorded using a luminescence microplate reader.

beta-catenin (b-cat) [2] = assay: Western blot, 22RV1 cells, beta-catenin; details: presence or absence of DHT, 24 h
Description: as §3, §4

GR [3] = assay: Western blot, MCF7 cells, GR; details: 24 h
Description: as §3, §4

cyclin D1 (cycD1) [4] = assay: Western blot, 22RV1 cells, cyclin D1; details: presence or absence of DHT, 24 h
Description: as §3, §4

estrogen receptor ERb = assay: Western blot, MCF7 cells, ERb; details: presence or absence of E2, 24 h
Description: as §3, §4

[5] = system: LNCaP-GR (GR overexpressing) cells; assay: Cell growth assay, GR overexpressing LNCaP cells; details: for IC50: Homo sapiens, LNCaP, 96 h, 4 days, standardized to equivalent concentration of Y1830, read-out: IC50 for the inhibition of growth
Description: as §1

GR [6] = assay: Western blot, 22RV1 cells, GR; details: presence or absence of DHT, 24 h
Description: as §3, §4

LNCaP cells = assay: Cell growth assay, LNCaP prostate cancer cells; details: for IC50: Homo sapiens, LNCaP, 96 h, 4 days, standardized to equivalent concentration of Y1830, read-out: IC50 for the inhibition of growth
Description: as §2, §1

[7] = system: progesterone receptor PR (a and b); assay: Western blot, MCF7 cells, PR; details: presence or absence of E2, 24 h
Description: as §3, §4

AR [8] = target: T1, AR (Homo sapiens, UniProt P10275); assay: Western blot, MCF7 cells, AR; details: presence or absence of E2, 24 h
T1 construct: endogenous in cells; host or cells: MCF7
T1 sequence (P10275 whole entry): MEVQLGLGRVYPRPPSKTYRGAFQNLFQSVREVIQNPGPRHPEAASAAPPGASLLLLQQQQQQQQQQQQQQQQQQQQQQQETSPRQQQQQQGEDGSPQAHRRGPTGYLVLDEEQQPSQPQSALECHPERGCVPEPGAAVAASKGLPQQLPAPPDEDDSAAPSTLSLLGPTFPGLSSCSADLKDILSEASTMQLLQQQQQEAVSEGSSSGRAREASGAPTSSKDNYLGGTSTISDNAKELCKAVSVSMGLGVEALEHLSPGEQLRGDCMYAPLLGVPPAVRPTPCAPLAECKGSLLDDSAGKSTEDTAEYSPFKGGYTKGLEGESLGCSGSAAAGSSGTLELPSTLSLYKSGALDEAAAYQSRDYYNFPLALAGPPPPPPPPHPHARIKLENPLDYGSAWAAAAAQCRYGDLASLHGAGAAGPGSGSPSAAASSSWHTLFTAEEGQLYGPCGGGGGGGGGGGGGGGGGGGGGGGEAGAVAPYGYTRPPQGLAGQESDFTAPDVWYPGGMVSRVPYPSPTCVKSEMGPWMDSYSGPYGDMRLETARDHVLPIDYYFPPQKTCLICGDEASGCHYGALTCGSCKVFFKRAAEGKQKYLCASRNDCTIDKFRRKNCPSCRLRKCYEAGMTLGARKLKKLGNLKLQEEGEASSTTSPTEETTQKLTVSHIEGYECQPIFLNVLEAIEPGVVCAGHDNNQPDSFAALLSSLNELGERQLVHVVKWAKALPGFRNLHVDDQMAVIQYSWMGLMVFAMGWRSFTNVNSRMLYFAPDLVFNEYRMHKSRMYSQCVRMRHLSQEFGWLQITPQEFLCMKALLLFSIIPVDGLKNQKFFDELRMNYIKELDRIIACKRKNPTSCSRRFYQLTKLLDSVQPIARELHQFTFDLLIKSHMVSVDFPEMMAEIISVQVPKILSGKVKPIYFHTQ
Description: as §3, §4

AR-V (truncated AR) = assay: Western blot, 22RV1 cells, AR-V; details: presence or absence of DHT, 24 h
Description: as §3, §4

cyclin D1 (cycD1) [9] = assay: Western blot, MCF7 cells, cyclin D1; details: presence or absence of E2, 24 h
Description: as §3, §4

beta-catenin (b-cat) [10] = assay: Western blot, MCF7 cells, beta-catenin; details: presence or absence of E2, 24 h
Description: as §3, §4

estrogen receptor ERa = target: T2, estrogen receptor ERa (Homo sapiens, UniProt P03372); assay: Western blot, MCF7 cells, ERa; details: presence or absence of E2, 24 h
T2 construct: endogenous in cells; host or cells: MCF7
T2 sequence (P03372 whole entry): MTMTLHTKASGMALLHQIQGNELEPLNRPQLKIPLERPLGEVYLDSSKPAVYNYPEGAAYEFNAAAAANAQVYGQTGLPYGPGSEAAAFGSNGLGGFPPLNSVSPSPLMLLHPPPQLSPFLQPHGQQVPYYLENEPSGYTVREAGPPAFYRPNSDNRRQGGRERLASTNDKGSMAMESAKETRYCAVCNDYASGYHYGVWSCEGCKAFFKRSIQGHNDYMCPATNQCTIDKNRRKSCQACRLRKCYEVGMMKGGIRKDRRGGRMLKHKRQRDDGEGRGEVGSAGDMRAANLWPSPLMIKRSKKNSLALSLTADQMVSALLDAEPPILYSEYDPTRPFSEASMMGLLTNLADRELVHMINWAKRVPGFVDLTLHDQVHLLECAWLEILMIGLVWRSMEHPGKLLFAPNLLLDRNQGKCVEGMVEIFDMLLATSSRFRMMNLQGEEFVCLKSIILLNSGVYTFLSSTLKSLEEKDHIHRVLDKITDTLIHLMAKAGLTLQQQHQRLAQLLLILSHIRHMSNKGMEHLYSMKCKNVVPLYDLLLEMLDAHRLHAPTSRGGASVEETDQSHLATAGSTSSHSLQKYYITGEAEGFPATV
Description: as §3, §4

| SMILES | IC50 (PC3 cells; PC3, no DEX) [µg/mL] | IC50 (PC3 cells; PC3 w/DEX 50 nM) [µg/mL] | IC50 (22Rv1 cells; 22Rv1, no DHT/DEX) [µg/mL] | IC50 (22Rv1 cells; 22Rv1 w/DEX 50 nM) [µg/mL] | IC50 (22Rv1 cells; 22Rv1 w/DHT 25 nM) [µg/mL] | AR protein expression (AR [1]) | inhibitory effect on AR mediated transcriptional response (androgen receptor (AR)) | beta-catenin protein expression (beta-catenin (b-cat) [2]) | GR protein expression (GR [3]) | cyclin D1 protein expression (cyclin D1 (cycD1) [4]) | ERb protein expression (estrogen receptor ERb) | IC50 ([5]; LNCaP-GR w/DEX 50 nM) [µg/mL] | IC50 ([5]; LNCaP-GR w/DHT 2 nM) [µg/mL] | IC50 ([5]; LNCaP-GR, no DHT/DEX) [µg/mL] | GR protein expression (GR [6]) | IC50 (LNCaP cells; LNCaP w/DHT 2 nM) [µg/mL] | IC50 (LNCaP cells; no DHT) [µg/mL] | PR (a and b) protein expression [7] | AR protein expression (AR [8]) | AR-V protein expression (AR-V (truncated AR)) | further results |
| --- | --- | --- | --- | --- | --- | --- | --- | --- | --- | --- | --- | --- | --- | --- | --- | --- | --- | --- | --- | --- | --- |
| CC(=O)OCC1OC(Oc2cc3c(c(O)c2C)C(=O)c2ccc(O)cc2C3=O)C(OC2OC(C)C(O)C(O)C2O)C(O)C1O [RGA, 1,3,6-Trihydroxy-2-methyl-9,10-anthracenedione 3-O-[α-L-Rhamnopyranosyl-(1→2)-6-O-acetyl-β-D-glucopyranoside]] | 146 | 320 | 306 | 220 | 253 | downregulate | very similar anti-AR activity as the Y1830 water extract | moderate inhibitory effect | did not inhibited | strong inhibitory effect | slightly downregulate | 60 | 40 | 220 | but not GR | 50 | > 500 | downregulate | downregulate | downregulate | inhibition of PC3 cell growth (in words) (PC3 cells; with or without DEX): inhibited PC3 cell growth, but less effectively in the presence of DEX; inhibition of LNCaP-GR cell growth (in words) ([5]; in the presence of either DHT or DEX): effectively inhibited; susceptibility of LNCaP cell growth to treatment (in words) (LNCaP cells; in the absence of DHT): not be susceptible; sensitivity of LNCaP cell growth to treatment (in words) (LNCaP cells; in the presence of DHT): more sensitive; cyclin D1 protein expression (cyclin D1 (cycD1) [9]): strong inhibitory effects; beta-catenin protein expression (beta-catenin (b-cat) [10]): moderate inhibitory effect; ERa protein expression (estrogen receptor ERa): downregulate |
| Cc1c(OC2OC(CO)C(O)C(O)C2OC2OC(C)C(O)C(O)C2O)cc2c(c1O)C(=O)c1ccc(O)cc1C2=O [RG, 1,3,6-Trihydroxy-2-methyl-9,10-anthracenedione 3-O-[α-L-Rhamnopyranosyl-(1→2)-β-D-glucopyranoside]] | > 500 | > 500 | > 500 | > 500 | > 500 | did not have impact | very weak activity | did not have impact | did not have any impact | did not have impact | did not have any impact | > 500 | > 500 | > 500 | did not have impact | > 500 | > 500 | did not have any impact | did not have any impact | did not have impact | cyclin D1 protein expression (cyclin D1 (cycD1) [9]): did not have any impact; beta-catenin protein expression (beta-catenin (b-cat) [10]): did not have any impact; ERa protein expression (estrogen receptor ERa): did not have any impact |
